Results published in patent US20230364070A1, “PYRROLO[3,2-C]PYRIDIN-4-ONE DERIVATIVES USEFUL IN THE TREATMENT OF CANCER” (Scorpion Therapeutics, Inc., priority 2020, published 2023).

Legend:
Assay type in all cases: cell-based
Ba/F3 cells with EGFR WT = biological target: T1, Ba/F3 cells with EGFR WT (Homo sapiens, UniProt P00533); assay: EGFR activity: Ba/F3 cell viability (CellTiter-Glo, 72 h), EGFR WT; settings: read-out: BaF3 WT IC50
T1 construct: expressed in transfected cells; host or cells: Ba/F3 (murine pro-B cells), retroviral transduction, puromycin selection, maintained with EGF

[1] = biological target: T2, Ba/F3 cells with EGFR exon 20 ASV Ins V769_D770 (Homo sapiens, UniProt P00533, INS769ASV); assay: EGFR activity: Ba/F3 cell viability (CellTiter-Glo, 72 h), EGFR exon 20 ASV insertion; settings: EGFR exon 20 ASV Ins V769_D770, cell viability, read-out: BaF3 ASV IC50
T2 construct: expressed in transfected cells; host or cells: Ba/F3 (murine pro-B cells), retroviral transduction, puromycin selection, IL3-independent pool

[2] = biological target: T3, Ba/F3 cells with EGFR exon 20 NPG Ins D770_N771 (Homo sapiens, UniProt P00533, INS770NPG); assay: EGFR activity: Ba/F3 cell viability (CellTiter-Glo, 72 h), EGFR exon 20 NPG insertion; settings: EGFR exon 20 NPG Ins D770_N771, cell viability, read-out: BaF3 NPG IC50
T3 construct: expressed in transfected cells; host or cells: Ba/F3 (murine pro-B cells), retroviral transduction, puromycin selection, IL3-independent pool
T3 sequence (P00533 with tags, fused parts or gaps INS770NPG): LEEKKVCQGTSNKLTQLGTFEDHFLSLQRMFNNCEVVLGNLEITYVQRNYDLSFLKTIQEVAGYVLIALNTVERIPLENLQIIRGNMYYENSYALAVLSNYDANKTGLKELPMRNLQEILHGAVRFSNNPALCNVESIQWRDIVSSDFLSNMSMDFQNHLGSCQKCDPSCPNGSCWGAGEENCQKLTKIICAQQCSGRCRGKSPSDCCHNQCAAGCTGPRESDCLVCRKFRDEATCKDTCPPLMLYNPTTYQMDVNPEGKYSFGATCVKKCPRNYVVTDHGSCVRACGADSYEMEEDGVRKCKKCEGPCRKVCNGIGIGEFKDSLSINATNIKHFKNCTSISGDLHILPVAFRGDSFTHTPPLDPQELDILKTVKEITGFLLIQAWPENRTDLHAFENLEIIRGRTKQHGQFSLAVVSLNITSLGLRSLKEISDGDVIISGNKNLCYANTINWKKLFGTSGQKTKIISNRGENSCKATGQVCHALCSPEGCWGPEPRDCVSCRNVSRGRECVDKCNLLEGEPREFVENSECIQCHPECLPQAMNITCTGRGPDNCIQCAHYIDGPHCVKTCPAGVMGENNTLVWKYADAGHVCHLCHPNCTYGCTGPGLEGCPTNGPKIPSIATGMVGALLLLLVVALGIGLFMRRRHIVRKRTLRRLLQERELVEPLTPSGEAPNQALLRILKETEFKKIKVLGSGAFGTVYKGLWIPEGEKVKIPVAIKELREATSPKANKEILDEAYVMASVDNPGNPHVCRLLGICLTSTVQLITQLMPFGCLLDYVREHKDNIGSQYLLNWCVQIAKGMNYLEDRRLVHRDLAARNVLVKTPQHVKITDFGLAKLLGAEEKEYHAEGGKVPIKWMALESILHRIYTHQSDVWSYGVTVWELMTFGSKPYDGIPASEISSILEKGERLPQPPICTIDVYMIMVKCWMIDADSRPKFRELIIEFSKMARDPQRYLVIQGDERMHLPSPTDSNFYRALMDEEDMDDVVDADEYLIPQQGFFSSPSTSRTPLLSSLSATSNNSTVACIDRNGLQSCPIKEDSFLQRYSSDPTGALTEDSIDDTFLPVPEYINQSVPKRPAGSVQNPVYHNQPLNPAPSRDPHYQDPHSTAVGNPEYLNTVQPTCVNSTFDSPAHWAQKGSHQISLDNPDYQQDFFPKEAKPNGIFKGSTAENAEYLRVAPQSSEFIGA

T1 sequence (P00533 25-1210): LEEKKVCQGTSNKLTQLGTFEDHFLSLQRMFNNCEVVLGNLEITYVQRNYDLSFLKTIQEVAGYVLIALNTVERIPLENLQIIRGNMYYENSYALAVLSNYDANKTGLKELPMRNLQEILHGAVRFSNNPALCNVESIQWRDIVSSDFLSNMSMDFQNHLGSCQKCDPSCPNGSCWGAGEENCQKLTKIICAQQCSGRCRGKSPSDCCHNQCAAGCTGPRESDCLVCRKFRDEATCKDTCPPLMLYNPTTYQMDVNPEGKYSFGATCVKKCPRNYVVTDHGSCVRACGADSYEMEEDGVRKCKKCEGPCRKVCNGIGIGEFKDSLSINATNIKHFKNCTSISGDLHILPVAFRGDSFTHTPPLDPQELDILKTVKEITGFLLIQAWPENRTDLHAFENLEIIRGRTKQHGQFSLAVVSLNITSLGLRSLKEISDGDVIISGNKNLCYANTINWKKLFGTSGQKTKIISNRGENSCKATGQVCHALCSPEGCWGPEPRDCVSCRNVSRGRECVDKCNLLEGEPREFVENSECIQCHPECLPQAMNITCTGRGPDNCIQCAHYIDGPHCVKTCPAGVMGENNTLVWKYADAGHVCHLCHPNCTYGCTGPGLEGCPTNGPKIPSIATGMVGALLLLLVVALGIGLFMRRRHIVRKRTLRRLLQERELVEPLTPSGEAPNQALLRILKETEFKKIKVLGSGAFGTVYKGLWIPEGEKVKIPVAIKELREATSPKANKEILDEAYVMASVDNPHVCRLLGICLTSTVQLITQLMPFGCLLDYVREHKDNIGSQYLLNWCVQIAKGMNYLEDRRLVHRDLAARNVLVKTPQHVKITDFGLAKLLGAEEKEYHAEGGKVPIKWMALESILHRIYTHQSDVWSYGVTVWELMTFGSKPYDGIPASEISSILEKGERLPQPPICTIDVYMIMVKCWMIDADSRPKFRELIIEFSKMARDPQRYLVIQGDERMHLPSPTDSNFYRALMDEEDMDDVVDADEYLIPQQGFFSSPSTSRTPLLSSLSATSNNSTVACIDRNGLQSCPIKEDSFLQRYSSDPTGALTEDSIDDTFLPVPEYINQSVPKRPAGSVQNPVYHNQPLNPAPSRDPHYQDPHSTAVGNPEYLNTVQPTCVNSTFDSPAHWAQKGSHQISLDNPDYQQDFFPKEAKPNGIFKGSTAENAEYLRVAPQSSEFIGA
T2 sequence (P00533 with tags, fused parts or gaps INS769ASV): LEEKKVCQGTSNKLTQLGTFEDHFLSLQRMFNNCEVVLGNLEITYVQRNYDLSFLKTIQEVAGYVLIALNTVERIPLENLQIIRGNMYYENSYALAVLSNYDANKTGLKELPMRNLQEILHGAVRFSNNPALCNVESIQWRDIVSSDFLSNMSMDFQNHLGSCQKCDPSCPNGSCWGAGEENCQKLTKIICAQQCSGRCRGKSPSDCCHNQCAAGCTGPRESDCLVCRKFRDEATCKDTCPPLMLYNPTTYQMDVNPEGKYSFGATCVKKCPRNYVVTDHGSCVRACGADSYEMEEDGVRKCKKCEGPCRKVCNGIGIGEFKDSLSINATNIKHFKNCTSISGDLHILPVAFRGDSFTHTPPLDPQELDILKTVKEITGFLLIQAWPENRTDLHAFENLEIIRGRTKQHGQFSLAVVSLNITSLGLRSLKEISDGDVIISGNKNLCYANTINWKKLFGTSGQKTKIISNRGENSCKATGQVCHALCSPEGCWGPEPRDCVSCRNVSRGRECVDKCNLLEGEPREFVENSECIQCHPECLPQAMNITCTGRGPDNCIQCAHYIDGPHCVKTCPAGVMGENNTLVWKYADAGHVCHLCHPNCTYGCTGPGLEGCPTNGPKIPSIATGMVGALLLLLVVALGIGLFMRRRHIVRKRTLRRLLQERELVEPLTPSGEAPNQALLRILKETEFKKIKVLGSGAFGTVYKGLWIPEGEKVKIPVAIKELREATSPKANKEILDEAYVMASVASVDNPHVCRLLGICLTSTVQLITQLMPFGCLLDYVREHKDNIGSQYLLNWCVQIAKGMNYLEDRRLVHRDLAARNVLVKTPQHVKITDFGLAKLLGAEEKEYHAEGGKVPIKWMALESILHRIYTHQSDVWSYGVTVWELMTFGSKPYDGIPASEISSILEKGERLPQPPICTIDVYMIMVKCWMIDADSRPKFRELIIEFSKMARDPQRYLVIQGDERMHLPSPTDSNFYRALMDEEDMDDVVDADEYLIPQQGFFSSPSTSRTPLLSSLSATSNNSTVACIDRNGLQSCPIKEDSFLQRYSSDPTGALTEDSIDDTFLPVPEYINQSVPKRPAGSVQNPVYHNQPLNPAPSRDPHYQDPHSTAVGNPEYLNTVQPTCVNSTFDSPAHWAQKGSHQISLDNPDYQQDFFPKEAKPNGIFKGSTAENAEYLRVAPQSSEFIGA

Row | Structure (SMILES) | IC50 (Ba/F3 cells with EGFR WT) [nM] | IC50 [1] [nM] | IC50 [2] [nM]
1 | COc1c(F)cccc1Nc1c(-c2ccncc2C#C[C@@H]2CCCO2)[nH]c2c1C(=O)NCC2 (single isomer, unassigned) [Compound 148a] | > 1000 | 100 to 1000 | –
2 | COc1c(F)cccc1Nc1c(-c2ccncc2C#CC2CCCO2)[nH]c2c1C(=O)NCC2 (single isomer, unassigned) [Compound 148b] | > 1000 | 100 to 1000 | –
3 | COc1c(F)cccc1Nc1c(-c2ccncc2OCCOC2CC2)[nH]c2c1C(=O)NCC2 [Compound 135, 2-(3-(2-cyclopropoxyethoxy)pyridin-4-yl)-3-((3-fluoro-2-methoxyphenyl)amino)-1,5,6,7-tetrahydro-4H-pyrrolo[3,2-c]pyridin-4-one] | > 1000 | – | > 1000
4 | COc1c(Cl)cccc1Nc1c(-c2ccncc2OC[C@@H]2CCCN2S(C)(=O)=O)[nH]c2c1C(=O)NCC2 [Compound 142a, (S)-3-((3-chloro-2-methoxyphenyl)amino)-2-(3-((1-(methylsulfonyl)pyrrolidin-2-yl)methoxy)pyridin-4-yl)-1,5,6,7-tetrahydro-4H-pyrrolo[3,2-c]pyridin-4-one] | 100 to 1000 | – | 100 to 1000
5 | COc1c(F)cccc1Nc1c(-c2ccncc2C#CC(C)(C)OC)[nH]c2c1C(=O)NCC2 [compound 149] | > 1000 | – | 100 to 1000
6 | C=CC(=O)N1CCC[C@H]1COc1cnccc1-c1[nH]c2c(c1Nc1cccc(Cl)c1CC)C(=O)NCC2 [compound 216, 3-[(3-chloro-2-ethylphenyl)amino]-2-(3-{[(2S)-1-(prop-2-enoyl)pyrrolidin-2-yl]methoxy}pyridin-4-yl)-1H,5H,6H,7H-pyrrolo[3,2-c]pyridin-4-one] | 100 to 1000 | < 100 | < 100
7 | C=CC(=O)N1CC(C)(C)C[C@@H]1C#Cc1cnccc1-c1[nH]c2c(c1Nc1cccc(Cl)c1OC)C(=O)NCC2 [compound 235, 3-[(3-chloro-2-methoxyphenyl)amino]-2-(3-{2-[(2R)-4,4-dimethyl-1-(prop-2-enoyl)pyrrolidin-2-yl]ethynyl}pyridin-4-yl)-1H,5H,6H,7H-pyrrolo[3,2-c]pyridin-4-one] | < 100 | < 100 | < 100
8 | C=CC(=O)N1[C@H](C)CC[C@@H]1C#Cc1cnccc1-c1[nH]c2c(c1Nc1cccc(Cl)c1OC)C(=O)NCC2 [compound 238, 3-[(3-chloro-2-methoxyphenyl)amino]-2-(3-{2-[(2R,5R)-5-methyl-1-(prop-2-enoyl)pyrrolidin-2-yl]ethynyl}pyridin-4-yl)-1H,5H,6H,7H-pyrrolo[3,2-c]pyridin-4-one] | 100 to 1000 | < 100 | < 100
9 | C=CC(=O)N1[C@H](C)CC[C@H]1C#Cc1cnccc1-c1[nH]c2c(c1Nc1cccc(Cl)c1OC)C(=O)NCC2 [compound 239, 3-[(3-chloro-2-methoxyphenyl)amino]-2-(3-{2-[(2S,5R)-5-methyl-1-(prop-2-enoyl)pyrrolidin-2-yl]ethynyl}pyridin-4-yl)-1H,5H,6H,7H-pyrrolo[3,2-c]pyridin-4-one] | < 100 | < 100 | < 100
10 | C=CC(=O)N1[C@H](C)CC[C@@H]1C#Cc1cnccc1-c1[nH]c2c(c1Nc1cccc(F)c1OC)C(=O)NCC2 [compound 256, 3-[(3-fluoro-2-methoxyphenyl)amino]-2-(3-{2-[(2R,5R)-5-methyl-1-(prop-2-enoyl)pyrrolidin-2-yl]ethynyl}pyridin-4-yl)-1H,5H,6H,7H-pyrrolo[3,2-c]pyridin-4-one] | 100 to 1000 | < 100 | < 100
11 | C=CC(=O)NC1(C#Cc2cnccc2-c2[nH]c3c(c2Nc2cccc(F)c2OC)C(=O)NCC3)CCC1 [compound 262, N-{1-[2-(4-{3-[(3-fluoro-2-methoxyphenyl)amino]-4-oxo-1H,5H,6H,7H-pyrrolo[3,2-c]pyridin-2-yl}pyridin-3-yl)ethynyl]cyclobutyl}prop-2-enamide] | 100 to 1000 | < 100 | < 100
12 | CC#CC(=O)N1CCOC[C@@H]1COc1cnccc1-c1[nH]c2c(c1Nc1cccc(F)c1OC)C(=O)NCC2 [compound 293, 2-(3-{[(3R)-4-(but-2-ynoyl)morpholin-3-yl]methoxy}pyridin-4-yl)-3-[(3-fluoro-2-methoxyphenyl)amino]-1H,5H,6H,7H-pyrrolo[3,2-c]pyridin-4-one] | > 1000 | > 1000 | > 1000
13 | COc1c(F)cccc1Nc1c(-c2ccncc2C#C[C@H]2CCCN2C(=O)/C=C/CN(C)C)[nH]c2c1C(=O)NCC2 [compound 303, 2-(3-{2-[(2R)-1-[(2E)-4-(dimethylamino)but-2-enoyl]pyrrolidin-2-yl]ethynyl}pyridin-4-yl)-3-[(3-fluoro-2-methoxyphenyl)amino]-1H,5H,6H,7H-pyrrolo[3,2-c]pyridin-4-one] | > 1000 | 100 to 1000 | 100 to 1000
14 | C=CC(=O)N1CCC[C@]1(C)C#Cc1cnccc1-c1[nH]c2c(c1Nc1cccc(F)c1C)C(=O)NCC2 [compound 304, 3-[(3-fluoro-2-methylphenyl)amino]-2-(3-{2-[(2R)-2-methyl-1-(prop-2-enoyl)pyrrolidin-2-yl]ethynyl}pyridin-4-yl)-1H,5H,6H,7H-pyrrolo[3,2-c]pyridin-4-one] | < 100 | < 100 | < 100
15 | C=CC(=O)N1CC[C@@H]1[C@H](C)Oc1cnccc1-c1[nH]c2c(c1Nc1cccc(F)c1OC)C(=O)NCC2 [compound 310, 3-[(3-fluoro-2-methoxyphenyl)amino]-2-{3-[(1S)-1-[(2R)-1-(prop-2-enoyl)azetidin-2-yl]ethoxy]pyridin-4-yl}-1H,5H,6H,7H-pyrrolo[3,2-c]pyridin-4-one] | > 1000 | 100 to 1000 | 100 to 1000
16 | CC#CC(=O)N1CC[C@H]1C#Cc1cnccc1-c1[nH]c2c(c1Nc1cccc(Cl)c1OC)C(=O)NCC2 [compound 371] | 100 to 1000 | < 100 | < 100
17 | CC#CC(=O)N1CC[C@@H]1C#Cc1cnccc1-c1[nH]c2c(c1Nc1cccc(Cl)c1OC)C(=O)NCC2 [compound 372] | 100 to 1000 | < 100 | < 100
18 | C=CC(=O)NC1(C#Cc2cnccc2-c2[nH]c3c(c2Nc2cccc(F)c2OC)C(=O)NCC3)CC2(COC2)C1 [compound 402] | > 1000 | 100 to 1000 | 100 to 1000
19 | COc1c(F)cccc1Nc1c(-c2ccncc2C#C[C@H]2CCC[C@H]2OC)[nH]c2c1C(=O)NCC2 [compound 485] | 100 to 1000 | < 100 | –

Row | Structure (SMILES) | IC50 (Ba/F3 cells with EGFR WT) [nM] | IC50 [1] [nM] | IC50 [2] [nM]
20 | COc1c(F)cccc1Nc1c(-c2ccncc2C#C[C@@H]2CCC[C@@H]2OC)[nH]c2c1C(=O)NCC2 [compound 486] | > 1000 | 100 to 1000 | –
21 | COc1c(Cl)cccc1Nc1c(-c2ccncc2C#CC2(OC)COC2)[nH]c2c1C(=O)NCC2 [compound 491] | 100 to 1000 | < 100 | –
22 | COc1ccccc1C#Cc1cnccc1-c1[nH]c2c(c1Nc1cccc(Cl)c1OC)C(=O)NCC2 [compound 497] | 100 to 1000 | < 100 | –
23 | Cc1c(F)cccc1Nc1c(-c2ccncc2C#CC2CC2)[nH]c2c1C(=O)NCC2 [compound 498] | > 1000 | 100 to 1000 | –
24 | COCC#Cc1cnccc1-c1[nH]c2c(c1Nc1cccc(F)c1C)C(=O)NCC2 [compound 500] | > 1000 | 100 to 1000 | –
25 | COc1ccccc1C#Cc1cnccc1-c1[nH]c2c(c1Nc1cccc(F)c1C)C(=O)NCC2 [compound 501] | 100 to 1000 | < 100 | –
26 | COc1ccc(C#Cc2cnccc2-c2[nH]c3c(c2Nc2cccc(F)c2C)C(=O)NCC3)cn1 [compound 502] | > 1000 | 100 to 1000 | –
27 | COc1cccnc1C#Cc1cnccc1-c1[nH]c2c(c1Nc1cccc(F)c1C)C(=O)NCC2 [compound 503] | 100 to 1000 | 100 to 1000 | –
28 | Cc1c(F)cccc1Nc1c(-c2ccncc2C#CC2CCOCC2)[nH]c2c1C(=O)NCC2 [compound 504] | > 1000 | 100 to 1000 | –
29 | Cc1c(F)cccc1Nc1c(-c2ccncc2C#CCN2CCOCC2)[nH]c2c1C(=O)NCC2 [compound 505] | > 1000 | > 1000 | –
30 | Cc1c(F)cccc1Nc1c(-c2ccncc2C#Cc2cnn(C)c2)[nH]c2c1C(=O)NCC2 [compound 506] | > 1000 | 100 to 1000 | –
31 | Cc1c(F)cccc1Nc1c(-c2ccncc2C#CC2(C)COC2)[nH]c2c1C(=O)NCC2 [compound 507] | > 1000 | 100 to 1000 | –
32 | Cc1c(F)cccc1Nc1c(-c2ccncc2C#CC2CCOC2)[nH]c2c1C(=O)NCC2 (centres unmarked) [compound 508] | > 1000 | 100 to 1000 | –
33 | Cc1c(F)cccc1Nc1c(-c2ccncc2C#CC2COC2)[nH]c2c1C(=O)NCC2 [compound 509] | > 1000 | 100 to 1000 | –
34 | C=CC(=O)N1CC(F)(F)C[C@H]1C#Cc1cnccc1-c1[nH]c2c(c1Nc1cccc(Cl)c1OC)C(=O)NCC2 [compound 520] | < 100 | < 100 | –
35 | COC(C)C#Cc1cnccc1-c1[nH]c2c(c1Nc1cccc(F)c1C)C(=O)NCC2 (centres unmarked) [compound 524] | > 1000 | 100 to 1000 | –
36 | COc1c(Cl)cccc1Nc1c(-c2ccncc2C#CC2CCC2)[nH]c2c1C(=O)NCC2 [compound 525] | > 1000 | < 100 | –
37 | C=CC(=O)N1CCC1C#Cc1cnccc1-c1[nH]c2c(c1Nc1cccc(F)c1OC)C(=O)NCC2 (centres unmarked) [compound 544] | < 100 | < 100 | –
38 | COc1c(Cl)cccc1Nc1c(-c2ccncc2C#CC2CC(F)(F)C2)[nH]c2c1C(=O)NCC2 [compound 548] | > 1000 | 100 to 1000 | –
